Data: patent US10246426B2, “Triazole compounds as T-type calcium channel blockers” (IDORSIA PHARMACEUTICALS LTD, priority 2014, dated 2019)

target: Cav3.2 (Homo sapiens, UniProt O95180); assay: Calcium flux FLIPR assay, HEK293 cells recombinantly expressing Cav3.2; assay type: cell-based; settings: Cav3.2-channel, Ca2+ entry stimulated by 10 mM CaCl2
Method in brief: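 Fluo-4-loaded HEK293 cells stably expressing Cav3.2, seeded overnight at 37 °C; compounds diluted in TEAC buffer (pH 7.2) and preincubated 3 min before Ca2+ entry triggered with CaCl2 at 10 mM final. Area under FLIPR fluorescence trace fitted sigmoidally; IC50 relative to vehicle signal.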

Cav3.2, sequence (O95180 whole entry, looked up): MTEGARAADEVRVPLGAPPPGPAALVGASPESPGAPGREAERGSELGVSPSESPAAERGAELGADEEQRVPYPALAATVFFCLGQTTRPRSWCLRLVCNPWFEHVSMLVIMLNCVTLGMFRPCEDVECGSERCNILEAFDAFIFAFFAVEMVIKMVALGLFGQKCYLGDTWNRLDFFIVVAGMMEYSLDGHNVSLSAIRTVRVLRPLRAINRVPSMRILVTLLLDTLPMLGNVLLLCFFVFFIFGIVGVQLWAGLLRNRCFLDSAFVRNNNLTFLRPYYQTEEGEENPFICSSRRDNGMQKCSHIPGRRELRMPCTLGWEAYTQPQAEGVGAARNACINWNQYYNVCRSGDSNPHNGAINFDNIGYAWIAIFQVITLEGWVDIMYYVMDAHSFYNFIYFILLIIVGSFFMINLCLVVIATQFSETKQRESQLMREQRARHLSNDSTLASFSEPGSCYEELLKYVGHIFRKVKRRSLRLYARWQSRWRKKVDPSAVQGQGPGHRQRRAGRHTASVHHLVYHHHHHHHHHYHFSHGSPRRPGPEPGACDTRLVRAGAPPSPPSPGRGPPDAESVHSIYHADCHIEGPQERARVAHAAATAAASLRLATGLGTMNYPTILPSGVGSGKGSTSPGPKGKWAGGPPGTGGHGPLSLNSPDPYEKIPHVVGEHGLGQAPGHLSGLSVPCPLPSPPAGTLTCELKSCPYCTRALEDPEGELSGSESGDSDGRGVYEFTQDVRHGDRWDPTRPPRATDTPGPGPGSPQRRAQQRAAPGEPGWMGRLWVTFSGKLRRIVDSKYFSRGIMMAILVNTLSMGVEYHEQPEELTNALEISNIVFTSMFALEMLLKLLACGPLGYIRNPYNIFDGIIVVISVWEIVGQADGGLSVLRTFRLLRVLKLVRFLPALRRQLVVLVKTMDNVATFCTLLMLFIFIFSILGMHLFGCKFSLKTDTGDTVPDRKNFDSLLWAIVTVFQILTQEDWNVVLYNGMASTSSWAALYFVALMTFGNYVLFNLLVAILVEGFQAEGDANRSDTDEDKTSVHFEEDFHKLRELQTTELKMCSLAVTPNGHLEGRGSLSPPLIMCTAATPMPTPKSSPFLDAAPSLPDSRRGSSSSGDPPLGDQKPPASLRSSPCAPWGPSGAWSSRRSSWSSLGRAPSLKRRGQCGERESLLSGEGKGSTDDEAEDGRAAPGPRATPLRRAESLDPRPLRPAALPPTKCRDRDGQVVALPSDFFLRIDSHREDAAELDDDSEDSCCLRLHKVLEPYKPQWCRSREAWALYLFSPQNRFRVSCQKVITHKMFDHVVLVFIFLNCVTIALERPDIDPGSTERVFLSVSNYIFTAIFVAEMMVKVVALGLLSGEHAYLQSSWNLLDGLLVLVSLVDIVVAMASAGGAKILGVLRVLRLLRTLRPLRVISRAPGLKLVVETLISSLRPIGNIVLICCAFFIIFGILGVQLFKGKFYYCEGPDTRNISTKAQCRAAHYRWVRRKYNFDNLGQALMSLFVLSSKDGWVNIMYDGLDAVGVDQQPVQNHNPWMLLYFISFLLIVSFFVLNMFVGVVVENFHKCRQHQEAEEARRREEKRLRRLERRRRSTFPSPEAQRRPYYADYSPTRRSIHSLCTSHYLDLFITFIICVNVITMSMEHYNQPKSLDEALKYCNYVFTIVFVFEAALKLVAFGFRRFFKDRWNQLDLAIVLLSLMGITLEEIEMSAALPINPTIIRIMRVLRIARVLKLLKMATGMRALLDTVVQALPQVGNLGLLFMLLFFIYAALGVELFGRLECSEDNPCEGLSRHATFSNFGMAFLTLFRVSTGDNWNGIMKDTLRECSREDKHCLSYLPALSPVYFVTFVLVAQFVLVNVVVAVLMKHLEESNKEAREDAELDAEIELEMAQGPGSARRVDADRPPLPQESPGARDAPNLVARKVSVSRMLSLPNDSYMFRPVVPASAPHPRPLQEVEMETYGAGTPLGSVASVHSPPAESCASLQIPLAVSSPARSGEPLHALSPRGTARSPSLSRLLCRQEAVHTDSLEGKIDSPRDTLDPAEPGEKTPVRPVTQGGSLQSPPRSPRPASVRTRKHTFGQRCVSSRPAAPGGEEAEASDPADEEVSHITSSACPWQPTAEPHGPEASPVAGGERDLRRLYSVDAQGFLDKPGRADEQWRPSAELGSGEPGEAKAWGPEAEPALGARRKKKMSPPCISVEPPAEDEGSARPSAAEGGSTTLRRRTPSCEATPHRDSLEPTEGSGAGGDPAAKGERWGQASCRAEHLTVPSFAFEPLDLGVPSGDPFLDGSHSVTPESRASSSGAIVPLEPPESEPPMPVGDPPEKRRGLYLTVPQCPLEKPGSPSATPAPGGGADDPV

| IC50 | Structure (SMILES) |
| --- | --- |
| 0.035 µM | COc1c(F)cc(Cn2ncc(NC(=O)Cc3ccc(C4(F)COC4)cc3)n2)cc1F [Example 148, N-[2-(3,5-Difluoro-4-methoxy-benzyl)-2H-[1,2,3]triazol-4-yl]-2-[4-(3-fluoro-oxetan-3-yl)-phenyl]-acetamide] |
| 0.029 µM | CCn1ncc2cc(CC(=O)Nc3cnn(Cc4cc(F)c(OC)c(F)c4)n3)ccc21 [Example 149, N-[2-(3,5-Difluoro-4-methoxy-benzyl)-2H-[1,2,3]triazol-4-yl]-2-(1-ethyl-1H-indazol-5-yl)-acetamide] |
| 0.016 µM | COc1c(F)cc(Cn2ncc(NC(=O)Cc3ccc4c(c3)c(C)cn4C)n2)cc1F [Example 150, N-[2-(3,5-Difluoro-4-methoxy-benzyl)-2H-[1,2,3]triazol-4-yl]-2-(1,3-dimethyl-1H-indol-5-yl)-acetamide] |
| 0.073 µM | COc1cc(Cn2ncc(NC(=O)Cc3ccc4c(cnn4C)c3)n2)ccc1F [Example 151, N-[2-(4-Fluoro-3-methoxy-benzyl)-2H-[1,2,3]triazol-4-yl]-2-(1-methyl-1H-indazol-5-yl)-acetamide] |
| 0.091 µM | COc1ccc(Cn2ncc(NC(=O)Cc3ccc4c(cnn4C)c3)n2)cc1F [Example 152, N-[2-(3-Fluoro-4-methoxy-benzyl)-2H-[1,2,3]triazol-4-yl]-2-(1-methyl-1H-indazol-5-yl)-acetamide] |
| 0.07 µM | COc1cc(Cn2ncc(NC(=O)Cc3ccc(C(C)C)cc3)n2)ccc1F [Example 153, N-[2-(4-Fluoro-3-methoxy-benzyl)-2H-[1,2,3]triazol-4-yl]-2-(4-isopropyl-phenyl)-acetamide] |
| 0.044 µM | COc1ccc(Cn2ncc(NC(=O)Cc3ccc(C(C)C)cc3)n2)cc1F [Example 154, N-[2-(3-Fluoro-4-methoxy-benzyl)-2H-[1,2,3]triazol-4-yl]-2-(4-isopropyl-phenyl)-acetamide] |
| 0.14 µM | COc1cc(Cn2ncc(NC(=O)Cc3ccc(N4CCCC4)nc3)n2)ccc1F [Example 155, N-[2-(4-Fluoro-3-methoxy-benzyl)-2H-[1,2,3]triazol-4-yl]-2-(6-pyrrolidin-1-yl-pyridin-3-yl)-acetamide] |
| 0.07 µM | COc1ccc(Cn2ncc(NC(=O)Cc3ccc(N4CCCC4)nc3)n2)cc1F [Example 156, N-[2-(3-Fluoro-4-methoxy-benzyl)-2H-[1,2,3]triazol-4-yl]-2-(6-pyrrolidin-1-yl-pyridin-3-yl)-acetamide] |
| 0.031 µM | CC(C)(C#N)c1ccc(CC(=O)Nc2cnn(Cc3ccc(C#N)c(F)c3)n2)cc1 [Example 157, 2-[4-(Cyano-dimethyl-methyl)-phenyl]-N-[2-(4-cyano-3-fluoro-benzyl)-2H-[1,2,3]triazol-4-yl]-acetamide] |
| 0.24 µM | COc1cc(Cn2ncc(NC(=O)Cc3ccc(C(C)(C)C)cc3)n2)cc(F)c1C#N [Example 158, 2-(4-tert-Butyl-phenyl)-N-[2-(4-cyano-3-fluoro-5-methoxy-benzyl)-2H-[1,2,3]triazol-4-yl]-acetamide] |
| 0.061 µM | N#Cc1ccc(Cn2ncc(NC(=O)Cc3ccc(C(F)(F)F)cc3)n2)cc1F [Example 159, N-[2-(4-Cyano-3-fluoro-benzyl)-2H-[1,2,3]triazol-4-yl]-2-(4-trifluoromethyl-phenyl)-acetamide] |
| 0.025 µM | N#Cc1ccc(Cn2ncc(NC(=O)Cc3cnc(N4CCCC4)c(F)c3)n2)cc1F [Example 161, N-[2-(4-Cyano-3-fluoro-benzyl)-2H-[1,2,3]triazol-4-yl]-2-(5-fluoro-6-pyrrolidin-1-yl-pyridin-3-yl)-acetamide] |
| 0.036 µM | Cc1cc(Cn2ncc(NC(=O)Cc3ccc(C(C)(C)C)cc3)n2)ccc1C#N [Example 162, 2-(4-tert-Butyl-phenyl)-N-[2-(4-cyano-3-methyl-benzyl)-2H-[1,2,3]triazol-4-yl]-acetamide] |
| 0.33 µM | Cc1cc(Cn2ncc(NC(=O)Cc3ccc4cnn(C)c4c3)n2)ccc1C#N [Example 163, N-[2-(4-Cyano-3-methyl-benzyl)-2H-[1,2,3]triazol-4-yl]-2-(1-methyl-1H-indazol-6-yl)-acetamide] |
| 0.11 µM | Cc1cc(Cn2ncc(NC(=O)Cc3ccc4c(cnn4C)c3)n2)ccc1C#N [Example 164, N-[2-(4-Cyano-3-methyl-benzyl)-2H-[1,2,3]triazol-4-yl]-2-(1-methyl-1H-indazol-5-yl)-acetamide] |
| 0.018 µM | Cc1cc(Cn2ncc(NC(=O)Cc3ccc(C(C)C)cc3)n2)ccc1C#N [Example 165, N-[2-(4-Cyano-3-methyl-benzyl)-2H-[1,2,3]triazol-4-yl]-2-(4-isopropyl-phenyl)-acetamide] |
| 0.022 µM | Cc1cc(Cn2ncc(NC(=O)Cc3ccc(N4CCC(F)(F)C4)nc3)n2)ccc1C#N [Example 167, N-[2-(4-Cyano-3-methyl-benzyl)-2H-[1,2,3]triazol-4-yl]-2-[6-(3,3-difluoro-pyrrolidin-1-yl)-pyridin-3-yl]-acetamide] |

| IC50 | Structure (SMILES) |
| --- | --- |
| 0.04 µM | CCn1ncc2cc(CC(=O)Nc3cnn(Cc4ccc(C#N)c(C)c4)n3)ccc21 [Example 168, N-[2-(4-Cyano-3-methyl-benzyl)-2H-[1,2,3]triazol-4-yl]-2-(1-ethyl-1H-indazol-5-yl)-acetamide] |
| 0.096 µM | Cc1cc(Cn2ncc(NC(=O)Cc3ccc4c(c3)c(C)nn4C)n2)ccc1C#N [Example 169, N-[2-(4-Cyano-3-methyl-benzyl)-2H-[1,2,3]triazol-4-yl]-2-(1,3-dimethyl-1H-indazol-5-yl)-acetamide] |
| 0.05 µM | Cc1cc(Cn2ncc(NC(=O)Cc3ccc(N4CCCC4)nc3)n2)ccc1C#N [Example 170, N-[2-(4-Cyano-3-methyl-benzyl)-2H-[1,2,3]triazol-4-yl]-2-(6-pyrrolidin-1-yl-pyridin-3-yl)-acetamide] |
| 0.022 µM | Cc1cc(Cn2ncc(NC(=O)Cc3ccc4c(c3)c(C)cn4C)n2)ccc1C#N [Example 171, N-[2-(4-Cyano-3-methyl-benzyl)-2H-[1,2,3]triazol-4-yl]-2-(1,3-dimethyl-1H-indol-5-yl)-acetamide] |
| 0.15 µM | Cn1ncc2cc(CC(=O)Nc3cnn(Cc4ccc(F)c(C#N)c4)n3)ccc21 [Example 173, N-[2-(3-Cyano-4-fluoro-benzyl)-2H-[1,2,3]triazol-4-yl]-2-(1-methyl-1H-indazol-5-yl)-acetamide] |
| 0.028 µM | CC(C)c1ccc(CC(=O)Nc2cnn(Cc3ccc(F)c(C#N)c3)n2)cc1 [Example 174, N-[2-(3-Cyano-4-fluoro-benzyl)-2H-[1,2,3]triazol-4-yl]-2-(4-isopropyl-phenyl)-acetamide] |
| 0.1 µM | N#Cc1ccc(Cn2ncc(NC(=O)Cc3ccc(OCC4(F)COC4)cc3)n2)cc1F [Example 175, N-[2-(4-Cyano-3-fluoro-benzyl)-2H-[1,2,3]triazol-4-yl]-2-[4-(3-fluoro-oxetan-3-ylmethoxy)-phenyl]-acetamide] |
| 0.033 µM | Cc1nn(C)c2ccc(CC(=O)Nc3cnn(Cc4ccc(C#N)c(F)c4)n3)cc12 [Example 177, N-[2-(4-Cyano-3-fluoro-benzyl)-2H-[1,2,3]triazol-4-yl]-2-(1,3-dimethyl-1H-indazol-5-yl)-acetamide] |
| 0.049 µM | CC(C)(C)c1ccc(CC(=O)Nc2cnn(Cc3ccc(OC(F)F)c(F)c3)n2)cc1 [Example 178, 2-(4-tert-Butyl-phenyl)-N-[2-(4-difluoromethoxy-3-fluoro-benzyl)-2H-[1,2,3]triazol-4-yl]-acetamide] |
| 0.022 µM | Cn1ncc2cc(CC(=O)Nc3cnn(Cc4ccc(OC(F)F)c(F)c4)n3)ccc21 [Example 179, N-[2-(4-Difluoromethoxy-3-fluoro-benzyl)-2H-[1,2,3]triazol-4-yl]-2-(1-methyl-1H-indazol-5-yl)-acetamide] |
| 0.043 µM | CC(C)c1ccc(CC(=O)Nc2cnn(Cc3ccc(OC(F)F)c(F)c3)n2)cc1 [Example 180, N-[2-(4-Difluoromethoxy-3-fluoro-benzyl)-2H-[1,2,3]triazol-4-yl]-2-(4-isopropyl-phenyl)-acetamide] |
| 0.086 µM | O=C(Cc1ccc(C2(C(F)(F)F)CC2)cc1)Nc1cnn(Cc2ccc(OC(F)F)c(F)c2)n1 [Example 181, N-[2-(4-Difluoromethoxy-3-fluoro-benzyl)-2H-[1,2,3]triazol-4-yl]-2-[4-(1-trifluoromethyl-cyclopropyl)-phenyl]-acetamide] |
| 0.013 µM | O=C(Cc1ccc(N2CCC(F)(F)C2)nc1)Nc1cnn(Cc2ccc(OC(F)F)c(F)c2)n1 [Example 182, N-[2-(4-Difluoromethoxy-3-fluoro-benzyl)-2H-[1,2,3]triazol-4-yl]-2-[6-(3,3-difluoro-pyrrolidin-1-yl)-pyridin-3-yl]-acetamide] |
| 0.026 µM | O=C(Cc1ccc(N2CCCC2)nc1)Nc1cnn(Cc2ccc(OC(F)F)c(F)c2)n1 [Example 183, N-[2-(4-Difluoromethoxy-3-fluoro-benzyl)-2H-[1,2,3]triazol-4-yl]-2-(6-pyrrolidin-1-yl-pyridin-3-yl)-acetamide] |
| 0.083 µM | CC(C)(C)c1ccc(CC(=O)Nc2cnn(Cc3ccc(OC(F)(F)F)c(F)c3)n2)cc1 [Example 184, 2-(4-tert-Butyl-phenyl)-N-[2-(3-fluoro-4-trifluoromethoxy-benzyl)-2H-[1,2,3]triazol-4-yl]-acetamide] |
| 0.017 µM | Cn1ncc2ccc(CC(=O)Nc3cnn(Cc4ccc(OC(F)(F)F)c(F)c4)n3)cc21 [Example 185, N-[2-(3-Fluoro-4-trifluoromethoxy-benzyl)-2H-[1,2,3]triazol-4-yl]-2-(1-methyl-1H-indazol-6-yl)-acetamide] |
| 0.0088 µM | Cn1ncc2cc(CC(=O)Nc3cnn(Cc4ccc(OC(F)(F)F)c(F)c4)n3)ccc21 [Example 186, N-[2-(3-Fluoro-4-trifluoromethoxy-benzyl)-2H-[1,2,3]triazol-4-yl]-2-(1-methyl-1H-indazol-5-yl)-acetamide] |

| Structure (SMILES) | IC50 |
| --- | --- |
| Cc1cc(Cn2ncc(NC(=O)Cc3ccc(OC4CC(F)(F)C4)cc3)n2)ccc1C#N [Example 166, N-[2-(4-Cyano-3-methyl-benzyl)-2H-[1,2,3]triazol-4-yl]-2-[4-(3,3-difluoro-cyclobutoxy)-phenyl]-acetamide] | 0.033 µM |
